In article PMC9448371, “Synthesis and biological activity evaluation of 3-(hetero) arylideneindolin-2-ones as potential c-Src inhibitors” (Journal of Enzyme Inhibition and Medicinal Chemistry, 2022):
“Also recorded” adds a separate entry of the source.

Tests used:
c-Src = target: T1, c-Src (Homo sapiens, UniProt P12931); test: c-Src kinase inhibition assay (ADP-Glo Kinase Assay); type: biochemical; conditions: Table 3; for inhibition at 100 µM: read-out: % Inhibition 100 µM; for IC50: read-out: ID50 (the source's name)
T1 construct: His6 (N); purchased Merck-Millipore 14–326
Description: To avoid peptide adsorption to the plastic surface, protein low-binding tubes were used. ADP-Glo Kinase Assay (Promega) was then used to detect kinase activity accordingly with manufacturer’s instruction with minor modifications. In details, reactions were transferred to white 384 well-plates and stopped by adding 10 µL of ADP-Glo Reagent (Promega) for 50 min at rt. 20 μL of Detection Reagent (Promega) was then added for 30 min and the reaction read using GloMax Discover microplate reader (Promega). Data were plotted using GraphPad Prism 5.0. […] Compounds tested were assumed to act as fully ATP-competitive inhibitors. Therefore, Ki values were calculated accordingly to Equation (2).

[1] = tested on: human MCF7 breast cancer cell line; test: Cytotoxicity, growth inhibition MTS assay; type: cell-based; conditions: mean ± SD, triplicate; for MCF-7 (IC50, μM): 72 h exposure; for IC50: Homo sapiens, MCF7, 72 h exposure, read-out: MCF-7 (IC50)
Description: Cytotoxicity experiments were carried out using the human MCF7 breast cancer cell line (ATCC HTB-22). […] Compound potency was determined by a growth inhibition assay (CellTiter 96® Aqueous One Solution Cell Proliferation Assay MTS, Promega). 24 h after seeding in a 96-well plate, cells were exposed to the compounds (concentration range 1–100 µM) and 72 h later, 20 µL of 3–(4,5-dimethylthiazol-2-yl)-5–(3-carboxymethoxyphenyl)-2–(4-sulfophenyl)-2H-tetrazolium salt (MTS) was added to each well. […] Experiments were performed in triplicate.

[2] = 10 µM compound, tested as E/Z mixtures
[3] = 100 µM compound, tested as E/Z mixtures
[4] = calculated from ID50 assuming fully ATP-competitive inhibition

T1 sequence (P12931 whole entry): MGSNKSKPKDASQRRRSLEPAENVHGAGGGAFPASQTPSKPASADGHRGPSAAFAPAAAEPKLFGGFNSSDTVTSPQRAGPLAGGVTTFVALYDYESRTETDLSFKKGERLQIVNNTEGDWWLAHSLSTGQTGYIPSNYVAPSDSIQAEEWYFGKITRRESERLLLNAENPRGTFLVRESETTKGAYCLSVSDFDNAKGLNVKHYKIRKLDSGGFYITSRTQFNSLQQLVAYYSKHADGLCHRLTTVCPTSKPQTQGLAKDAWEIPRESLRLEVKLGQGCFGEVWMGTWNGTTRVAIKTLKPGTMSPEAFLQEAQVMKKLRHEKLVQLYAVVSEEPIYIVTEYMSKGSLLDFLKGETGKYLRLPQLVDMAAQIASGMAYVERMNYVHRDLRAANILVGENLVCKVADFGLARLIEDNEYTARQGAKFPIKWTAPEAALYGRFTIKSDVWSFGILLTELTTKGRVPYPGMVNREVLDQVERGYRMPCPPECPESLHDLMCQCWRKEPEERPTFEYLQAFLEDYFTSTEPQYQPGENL

Work on O=C1Nc2cc(Cl)ccc2C1=Cc1cnc(Br)s1 [Compound 49, 3-((2-bromothiazol-5-yl)methylene)-6-chloroindolin-2-one] yielded an inhibition at 10 µM (c-Src; [2]) of 53.9 ± 26.6%, an inhibition at 100 µM (c-Src; [3]) of 76.8 ± 9.22% and an IC50 (c-Src; 100 μM ATP) of over 10 µM. For the same compound, the “MCF-7 (IC50, μM)” value [1] was “potency comparable to Dasatinib; also recorded: cytotoxicity comparable to that of the reference compound Dasatinib”, the IC50 [1] was 33 ± 2 µM and the melting point was 262 to 263 °C (dec.).

For CN(C)c1ccc(C=C2C(=O)Nc3cc(Cl)ccc32)cc1 [Compound 34, 6-chloro-3–(4-(dimethylamino)benzylidene)indolin-2-one], the inhibition at 10 µM (c-Src; [2]) was 85%, the “% Inhibition 10 µM” value (c-Src; 10 µM compound, tested as E/Z mixtures, listed as C00033, 10 µM) was 85.35 ± 6.98% and the inhibition at 100 µM (c-Src; [3]) was 75.7 ± 7.63%. The IC50 (c-Src; 100 μM ATP) was 0.71 µM, the Ki (c-Src; [4]) was 480 nM and the “MCF-7 (IC50, μM)” value [1] was “did not show any cytotoxic activity”. For the same compound, the IC50 [1] was over 100 µM and the melting point was 253 to 254 °C.

With Cc1nc(Nc2ncc(C(=O)Nc3c(C)cccc3Cl)s2)cc(N2CCN(CCO)CC2)n1 [Dasatinib, reference compound] the IC50 [1] was 27 ± 1 µM.

Compound O=C1Nc2cc(Cl)ccc2C1=Cc1ccc2[nH]ccc2c1 [Compound 50, 3-((1H-indol-5-yl)methylene)-6-chloroindolin-2-one] has an inhibition at 10 µM (c-Src; [2]) of 41.2 ± 1.12%, an inhibition at 100 µM (c-Src; [3]) of 96.1 ± 1.42% and an IC50 (c-Src; 100 μM ATP) of 9.14 µM. The Ki (c-Src; [4]) was 6170 nM, the IC50 [1] was 68 ± 2 µM and the melting point was 238 to 239 °C.

For O=C1Nc2cc(Cl)ccc2C1=Cc1ccc([N+](=O)[O-])cc1 [Compound 33, 6-chloro-3–(4-nitrobenzylidene)indolin-2-one], the inhibition at 10 µM (c-Src; [2]) was 53 ± 18.1%, the inhibition at 100 µM (c-Src; [3]) was 69.94 ± 0.19% and the ID50 (c-Src; 100 μM ATP) was “single-digit micromolar”. The IC50 (c-Src; 100 μM ATP) was 2.43 µM, the Ki (c-Src; [4]) was 1640 nM and the “Ki (ATP competitive)” value (c-Src; [4]) was “single-digit micromolar”. For the same compound, the IC50 [1] was over 100 µM and the melting point was 322 to 323 °C (dec.).

In the case of CCOC(=O)COc1ccc(C=C2C(=O)Nc3cc(Cl)ccc32)cc1 [Compound 43, Ethyl 2–(4-((6-chloro-2-oxoindolin-3-ylidene)methyl)phenoxy) acetate], the inhibition at 10 µM (c-Src; [2]) is reported as 71.7 ± 2.27%, the “% Inhibition 100 µM” value (c-Src; 100 µM compound, tested as E/Z mixtures, 100 µM) is reported as “good activity” and the inhibition at 100 µM (c-Src; [3]) is reported as 80.8 ± 6.47%. The IC50 (c-Src; 100 μM ATP) was 3.24 µM, the IC50 [1] was 85 ± 2 µM and the melting point was 158 to 159 °C.
